Key:
[1] = Antioxidant activity assessed as superoxide anion radical scavenging activity at 1 mM; assay type: functional
[2] = tested on: Radical scavenging activity; assay: Antioxidant activity assessed as DPPH radical scavenging activity at 0.5 mM after 30 min; assay type: functional

Which Activity [1] does the source give for `Cc1c2c(nn1CC(=O)Nc1ccccc1Cl)-c1ccccc1S(=O)(=O)N2C` here?
Its Activity is 61%.

What about the Activity [2] of the same compound?
Its Activity is 21.8%.

For `COc1ccc(O)c(C(C)(C)C)c1.COc1ccc(O)cc1C(C)(C)C`, which Activity [2] is on record?
Its Activity is 92.6%.

For `Cc1ccccc1CNC(=O)Cn1nc2c(c1C)N(C)S(=O)(=O)c1ccccc1-2`, which Activity [1] is on record?
Its Activity is 81.5%.

What about the Activity [2] of the same compound?
Its Activity is 15.2%.

With `Cc1c2c(nn1CC(=O)Nc1ccccc1Br)-c1ccccc1S(=O)(=O)N2C` as the compound, how does the Activity [1] read?
The Activity was 79.1%.

What about the Activity [2] of the same compound?
Its Activity is 27.6%.

Which Activity [1] does the source give for `Cc1c2c(nn1CC(=O)NCc1ccccc1Cl)-c1ccccc1S(=O)(=O)N2C` here?
Its Activity is 52.5%.

What about the Activity [2] of the same compound?
The Activity was 17.1%.

What does the source list for `COc1cccc(NC(=O)Cn2nc3c(c2C)N(C)S(=O)(=O)c2ccccc2-3)c1`?
Activity [1]: 47.4%; Activity [2]: 20.2%

What does the source list for `Cc1ccc(CNC(=O)Cn2nc3c(c2C)N(C)S(=O)(=O)c2ccccc2-3)cc1`?
Activity [1]: 57.8%; Activity [2]: 17.9%

What does the source list for `Cc1c2c(nn1CC(=O)Nc1cccc(Br)c1)-c1ccccc1S(=O)(=O)N2C`?
Activity [1]: 47.1%; Activity [2]: 26.1%

Which Activity [1] does the source give for `CCCOC(=O)c1cc(O)c(O)c(O)c1` here?
The Activity was 90.8%.

Which Activity [1] does the source give for `Cc1c2c(nn1CC(=O)Nc1ccc(Cl)cc1)-c1ccccc1S(=O)(=O)N2C` here?
Its Activity is 55.6%.

And the Activity [2]?
The Activity was 25.4%.

For `Cc1c2c(nn1CC(=O)NCc1ccc(F)cc1)-c1ccccc1S(=O)(=O)N2C`, which Activity [1] is on record?
Its Activity is 42.3%.

What about the Activity [2] of the same compound?
Its Activity is 15.8%.

Which Activity [1] does the source give for `Cc1c2c(nn1CC(=O)NCc1ccccc1Br)-c1ccccc1S(=O)(=O)N2C` here?
Its Activity is 64%.

And the Activity [2]?
The Activity was 21.1%.

Which results are given for `COc1ccccc1CNC(=O)Cn1nc2c(c1C)N(C)S(=O)(=O)c1ccccc1-2`?
Activity [1]: 38.8%; Activity [2]: 25.6%

Which results are given for `Cc1c2c(nn1CC(=O)NCc1cccc(Br)c1)-c1ccccc1S(=O)(=O)N2C`?
Activity [1]: 32.5%; Activity [2]: 14.1%

With `COc1ccc(CNC(=O)Cn2nc3c(c2C)N(C)S(=O)(=O)c2ccccc2-3)c(OC)c1` as the compound, how does the Activity [1] read?
Its Activity is 58.3%.

What about the Activity [2] of the same compound?
Its Activity is 27.3%.

Which results are given for `COc1cccc(CNC(=O)Cn2nc3c(c2C)N(C)S(=O)(=O)c2ccccc2-3)c1`?
Activity [1]: 25.9%; Activity [2]: 16.2%

With `Cc1c2c(nn1CC(=O)NCc1ccccc1F)-c1ccccc1S(=O)(=O)N2C` as the compound, how does the Activity [1] read?
The Activity was 48.5%.

And the Activity [2]?
The Activity was 20.2%.

What does the source list for `COc1ccccc1NC(=O)Cn1nc2c(c1C)N(C)S(=O)(=O)c1ccccc1-2`?
Activity [1]: 53.8%; Activity [2]: 26.9%

Which Activity [1] does the source give for `COc1ccc(NC(=O)Cn2nc3c(c2C)N(C)S(=O)(=O)c2ccccc2-3)c(OC)c1` here?
Its Activity is 78.3%.

What about the Activity [2] of the same compound?
The Activity was 39.8%.

Which Activity [1] does the source give for `Cc1c2c(nn1CC(=O)Nc1ccccc1)-c1ccccc1S(=O)(=O)N2C` here?
The Activity was 28.6%.

And the Activity [2]?
The Activity was 18.3%.

Which Activity [1] does the source give for `Cc1c2c(nn1CC(=O)Nc1ccccc1F)-c1ccccc1S(=O)(=O)N2C` here?
The Activity was 47.7%.

And the Activity [2]?
Its Activity is 23.1%.

With `COc1ccc(CNC(=O)Cn2nc3c(c2C)N(C)S(=O)(=O)c2ccccc2-3)cc1` as the compound, how does the Activity [1] read?
Its Activity is 33.1%.

And the Activity [2]?
The Activity was 23.7%.

With `Cc1c2c(nn1CC(=O)NCc1ccc(Cl)cc1)-c1ccccc1S(=O)(=O)N2C` as the compound, how does the Activity [1] read?
The Activity was 47.2%.

And the Activity [2]?
The Activity was 16.7%.

Which results are given for `Cc1c2c(nn1CC(=O)Nc1ccc(F)cc1)-c1ccccc1S(=O)(=O)N2C`?
Activity [1]: 44.1%; Activity [2]: 22.1%
